The structures appear in SMILES notation. pIC50: −log10 of the molar value.

For the assay, the target named is Substance-P receptor (Homo sapiens, UniProt P25103). Nature of the assay: Displacement of [125I]BH-SP to human recombinant NK1 receptor in CHO cells. It counts as cell-based. (Displacement assays read how much labelled ligand stays bound in the presence of the test substance.)
Sequence of Substance-P receptor (P25103 whole entry): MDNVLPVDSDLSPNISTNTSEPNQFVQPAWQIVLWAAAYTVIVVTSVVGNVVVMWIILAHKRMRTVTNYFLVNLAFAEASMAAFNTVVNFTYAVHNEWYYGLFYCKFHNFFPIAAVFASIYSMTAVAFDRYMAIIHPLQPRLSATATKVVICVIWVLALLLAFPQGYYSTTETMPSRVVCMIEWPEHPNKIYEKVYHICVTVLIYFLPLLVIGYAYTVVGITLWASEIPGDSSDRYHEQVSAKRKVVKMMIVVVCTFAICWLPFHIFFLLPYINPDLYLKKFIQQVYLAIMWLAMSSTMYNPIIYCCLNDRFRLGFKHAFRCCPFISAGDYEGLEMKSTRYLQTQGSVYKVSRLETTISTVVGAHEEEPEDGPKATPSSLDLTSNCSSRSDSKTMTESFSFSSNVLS
`CN(Cc1cc(C(F)(F)F)cc(C(F)(F)F)c1)C(=O)c1c(-c2ccccc2)c2ccccc2n2ccnc12`: the pIC50 was 7.42.
For `Cc1ccc(-c2c(C(=O)NCc3cc(C(F)(F)F)cc(C(F)(F)F)c3)c3nnnn3c3ccccc23)cc1`, the pIC50 is 6.40.
With `O=C(NCc1cc(C(F)(F)F)cc(C(F)(F)F)c1)c1c(-c2ccccc2)c2ccccc2n2cncc12`, the pIC50 is 6.84.
As for `Cc1ccc(-c2c(C(=O)N(C)Cc3cc(C(F)(F)F)cc(C(F)(F)F)c3)c3nnnn3c3ccccc23)cc1`, the negative-log IC50 (pIC50) was 7.26.
To `O=C(NCc1cc(C(F)(F)F)cc(C(F)(F)F)c1)c1c(-c2ccccc2)c2ccccc2n2cnnc12` belongs 6.27.
On to `CN(Cc1cc(C(F)(F)F)cc(C(F)(F)F)c1)C(=O)c1c(-c2ccccc2)c2ccccc2n2cccc12`, for which the pIC50 is 7.44.
Take `O=C(NCc1cc(C(F)(F)F)cc(C(F)(F)F)c1)c1c(-c2ccccc2)c2ccccc2n2ccnc12`: the negative logarithm of the IC50 (pIC50) is 5.91.
Turning to `CN(Cc1cc(C(F)(F)F)cc(C(F)(F)F)c1)C(=O)c1c(-c2ccc(F)cc2)c2ccccc2n2nnnc12`, the pIC50 was 7.68.
Turning to `COc1ccccc1CNC(=O)c1c(-c2ccccc2)c2ccccc2n2nnnc12`, the negative-log IC50 (pIC50) is 5.56.
For the compound `COc1cc(CNC(=O)c2c(-c3ccccc3)c3ccccc3n3nnnc23)cc(OC)c1`, the pIC50 is 6.11.
Regarding `O=C(NCc1cc(C(F)(F)F)cc(C(F)(F)F)c1)c1c(-c2ccccc2)c2ccccc2n2nnnc12`, the negative-log IC50 (pIC50) was 6.51.
As to `CN(Cc1cc(C(F)(F)F)cc(C(F)(F)F)c1)C(=O)c1c(-c2ccccc2)c2ccccc2n2cnnc12`, the negative-log IC50 (pIC50) is 8.05.
The value for `O=C(NCc1cc(C(F)(F)F)cc(C(F)(F)F)c1)c1c(-c2ccccc2)c2ccccc2n2cccc12` was 6.41; that for `CN(Cc1cc(C(F)(F)F)cc(C(F)(F)F)c1)C(=O)c1c(-c2ccccc2)c2ccccc2n2cncc12` was 8.37; that for `CN(Cc1cc(C(F)(F)F)cc(C(F)(F)F)c1)C(=O)c1c(-c2ccccc2)c2ccccc2n2nnnc12` was 7.59.
Regarding `O=C(NCc1cc(C(F)(F)F)cc(C(F)(F)F)c1)c1c(-c2ccc(F)cc2)c2ccccc2n2nnnc12`, the pIC50 was 6.63.

What is called pIC50 is −log10 of the IC50, conventionally taken in molar units.

These data come from ChEMBL document CHEMBL1158159, “Design, synthesis, and structure-affinity relationship studies in NK1 receptor ligands based on azole-fused quinolinecarboxamide moieties” (Bioorg Med Chem, 2008).
